Reference: patent US11427548B2 (Arvinas Operations, Inc., priority 2015, dated 2022)
Like-named read-outs stand apart in the source and are kept apart here.

Target: T1, Androgen Receptor (Homo sapiens, UniProt P10275)
T1 construct: endogenous in cells; host or cells: VCaP cells
T1 sequence (P10275 1-920): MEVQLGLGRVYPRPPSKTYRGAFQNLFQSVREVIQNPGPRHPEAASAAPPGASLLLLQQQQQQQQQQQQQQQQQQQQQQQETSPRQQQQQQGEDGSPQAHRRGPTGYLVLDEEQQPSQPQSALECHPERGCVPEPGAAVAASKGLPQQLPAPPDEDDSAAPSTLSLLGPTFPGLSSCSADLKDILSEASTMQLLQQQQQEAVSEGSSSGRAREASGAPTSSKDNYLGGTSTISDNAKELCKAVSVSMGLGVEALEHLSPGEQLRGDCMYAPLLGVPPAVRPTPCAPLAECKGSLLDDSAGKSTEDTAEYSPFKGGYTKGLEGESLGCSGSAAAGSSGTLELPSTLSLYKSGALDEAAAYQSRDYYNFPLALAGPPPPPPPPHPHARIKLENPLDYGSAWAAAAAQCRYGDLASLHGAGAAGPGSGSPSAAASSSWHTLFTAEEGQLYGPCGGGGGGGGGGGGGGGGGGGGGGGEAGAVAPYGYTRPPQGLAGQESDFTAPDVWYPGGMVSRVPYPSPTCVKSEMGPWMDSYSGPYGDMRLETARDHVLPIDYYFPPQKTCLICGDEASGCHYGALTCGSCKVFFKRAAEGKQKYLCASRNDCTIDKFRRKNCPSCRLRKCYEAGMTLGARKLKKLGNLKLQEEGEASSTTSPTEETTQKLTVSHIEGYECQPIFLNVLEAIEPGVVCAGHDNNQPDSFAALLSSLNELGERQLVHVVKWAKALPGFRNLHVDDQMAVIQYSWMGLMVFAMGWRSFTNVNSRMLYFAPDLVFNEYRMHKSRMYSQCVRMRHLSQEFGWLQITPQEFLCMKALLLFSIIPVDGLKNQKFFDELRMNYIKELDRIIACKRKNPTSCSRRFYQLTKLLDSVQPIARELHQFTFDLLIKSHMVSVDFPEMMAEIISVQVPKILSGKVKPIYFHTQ
Test: Androgen Receptor ELISA assay (PathScan AR ELISA) in VCaP cells: AR degradation, Dmax and DC50
Format: cell-based
Procedure, shortened: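 VCaP cells in phenol red-free RPMI with 5% charcoal-stripped FBS were grown at least 3 days, then given compound as 7 half-log doses in 0.1% DMSO with 0.1 nM R1881 for 24 h. Lysates went into a sandwich AR ELISA with TMB read at 450 nm.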

[1] = VCaP cells; Table 36; read-out: VCaP DC50
[2] = VCaP, VCaP cells; Table 36; read-out: VCaP Dmax (%)

SMILES | DC50 [1] [nM] | Dmax [2] [%] | Dmax (VCaP, read-out: VCaP Dmax (%), VCaP cells; Table 36) [%] | Dmax (VCaP, read-out: VCaP Dmax (%)) [%] | DC50 (read-out: VCaP DC50; VCaP cells; Table 36) [nM]
Cc1ncsc1-c1ccc([C@H](C)NC(=O)[C@@H]2C[C@@H](O)CN2C(=O)[C@@H](NC(=O)CN2C[C@@H](C)N(CCCc3ccc(C(=O)N[C@H]4C(C)(C)[C@H](Oc5ccc(C#N)c(Cl)c5)C4(C)C)cc3)C[C@@H]2C)C(C)(C)C)cc1 [Example 817, (2S,4R)-1-((S)-2-(2-((2S,5R)-4-(3-(4-(((1r, 3R)-3-(3-chloro-4-cyanophenoxy)-2,2,4,4-tetramethylcyclobutyl)carbamoyl)phenyl)propyl)-2,5-dimethylpiperazin-1-yl)acetamido)-3,3-dimethylbutanoyl)-4-hydroxy-N-((S)-1-(4-(4-methylthiazol-5-yl)phenyl)ethyl) pyrrolidine-2-carboxamide] | < 50 |  |  | > 71 | 
Cc1ncsc1-c1ccc([C@H](C)NC(=O)[C@@H]2C[C@@H](O)CN2C(=O)[C@@H](c2cc(CCCN3CCN(c4ccc(C(=O)N[C@H]5C(C)(C)[C@H](Oc6ccc(C#N)c(Cl)c6)C5(C)C)cn4)CC3)no2)C(C)C)cc1 [Example 819, N-((1r,3r)-3-(3-chloro-4-cyanophenoxy)-2,2,4,4-tetramethylcyclobutyl)-6-(4-(3-(5-((R)-1-((2S, 4R)-4-hydroxy-2-(((S)-1-(4-(4-methylthiazol-5-yl)phenyl)ethyl)carbamoyl)pyrrolidin-1-yl)-3-methyl-1-oxobutan-2-yl)isoxazol-3-yl)propyl)piperazin-1-yl) nicotinamide] | < 50 | > 71 |  |  | 
Cc1ncsc1-c1ccc([C@H](CO)NC(=O)[C@@H]2C[C@@H](O)CN2C(=O)[C@@H](NC(=O)COCCN2C3CCC2CN(c2ccc(C(=O)N[C@H]4C(C)(C)[C@H](Oc5ccc(C#N)c(Cl)c5)C4(C)C)cn2)C3)C(C)(C)C)cc1 [Example 821, N-((1r,3r)-3-(3-chloro-4-cyanophenoxy)-2,2,4,4-tetramethylcyclobutyl)-6-(8-(2-(2-(((S)-1-((2S, 4R)-4-hydroxy-2-(((R)-2-hydroxy-1-(4-(4-methylthiazol-5-yl)phenyl)ethyl)carbamoyl)pyrrolidin-1-yl)-3,3-dimethyl-1-oxobutan-2-yl)amino)-2-oxoethoxy)ethyl)-3,8-diazabicyclo [3.2.1]octan-3-yl) nicotinamide] |  |  |  | > 71 | < 50
Cc1ncsc1-c1ccc([C@H](CO)NC(=O)C2C[C@@H](O)CN2C(=O)[C@@H](NC(=O)COCCN2CCCN(c3ccc(C(=O)NC4C(C)(C)C(Oc5ccc(C#N)c(Cl)c5)C4(C)C)cn3)CC2)C(C)(C)C)cc1 (stereo partly drawn) [Example 822, N-((1r,3r)-3-(3-chloro-4-cyanophenoxy)-2,2,4,4-tetramethylcyclobutyl)-6-(4-(2-(2-(((S)-1-((2S, 4R)-4-hydroxy-2-(((R)-2-hydroxy-1-(4-(4-methylthiazol-5-yl)phenyl)ethyl)carbamoyl)pyrrolidin-1-yl)-3,3-dimethyl-1-oxobutan-2-yl)amino)-2-oxoethoxy)ethyl)-1,4-diazepan-1-yl) nicotinamide] | < 50 | > 71 |  |  | 
Cc1ncsc1-c1ccc([C@H](C)NC(=O)[C@@H]2C[C@@H](O)CN2C(=O)[C@@H](NC(=O)CN2CCN(CCCc3ccc(C(=O)N[C@H]4C(C)(C)[C@H](Oc5ccc(C#N)c(Cl)c5)C4(C)C)cc3)[C@@H](CO)C2)C(C)(C)C)cc1 [Example 823, (2S,4R)-1-((S)-2-(2-((R)-4-(3-(4-(((1r,3R)-3-(3-chloro-4-cyanophenoxy)-2,2,4,4-tetramethylcyclobutyl)carbamoyl)phenyl)propyl)-3-(hydroxymethyl)piperazin-1-yl)acetamido)-3,3-dimethylbutanoyl)-4-hydroxy-N-((S)-1-(4-(4-methylthiazol-5-yl)phenyl)ethyl) pyrrolidine-2-carboxamide] | < 50 |  |  | > 71 | 
Cc1ncsc1-c1ccc([C@H](C)NC(=O)[C@@H]2C[C@@H](O)CN2C(=O)[C@@H](NC(=O)CN2CCN(CCCc3ccc(C(=O)N[C@H]4C(C)(C)[C@H](Oc5ccc(C#N)c(Cl)c5)C4(C)C)cc3)[C@H](CO)C2)C(C)(C)C)cc1 [Example 824, (2S,4R)-1-((S)-2-(2-((S)-4-(3-(4-(((1r,3S)-3-(3-chloro-4-cyanophenoxy)-2,2,4,4-tetramethylcyclobutyl)carbamoyl)phenyl)propyl)-3-(hydroxymethyl)piperazin-1-yl)acetamido)-3,3-dimethylbutanoyl)-4-hydroxy-N-((S)-1-(4-(4-methylthiazol-5-yl)phenyl)ethyl) pyrrolidine-2-carboxamide] | < 50 |  |  | > 71 | 
Cc1ncsc1-c1ccc([C@H](C)NC(=O)[C@@H]2C[C@@H](O)CN2C(=O)[C@@H](NC(=O)CN2CCC(CN3CCN(c4ccc(C(=O)N[C@H]5C(C)(C)[C@H](Oc6ccc(C#N)c(Cl)c6)C5(C)C)cn4)CC3)CC2)C(C)(C)C)cc1 [Example 825, N-((1r,3r)-3-(3-chloro-4-cyanophenoxy)-2,2,4,4-tetramethylcyclobutyl)-6-(4-((1-(2-(((S)-1-((2S,4R)-4-hydroxy-2-(((S)-1-(4-(4-methylthiazol-5-yl)phenyl)ethyl)carbamoyl)pyrrolidin-1-yl)-3,3-dimethyl-1-oxobutan-2-yl)amino)-2-oxoethyl)piperidin-4-yl)methyl)piperazin-1-yl)nicotinamide] | < 50 |  |  | > 71 | 

Further lines, with some results ahead:

DC50 [1] [nM] | Dmax [2] [%] | Dmax (VCaP, read-out: VCaP Dmax (%), VCaP cells; Table 36) [%] | SMILES | Dmax (VCaP, read-out: VCaP Dmax (%)) [%] | DC50 (read-out: VCaP DC50; VCaP cells; Table 36) [nM]
> 501 | < 25 |  | Cc1ncsc1-c1ccc([C@H](C)NC(=O)[C@@H]2C[C@@H](O)CN2C(=O)[C@H](c2cc(CCCN3CCN(c4ccc(C(=O)N[C@H]5C(C)(C)[C@H](Oc6ccc(C#N)c(Cl)c6)C5(C)C)cn4)CC3)no2)C(C)C)cc1 [Example 818, N-((1r,3r)-3-(3-chloro-4-cyanophenoxy)-2,2,4,4-tetramethylcyclobutyl)-6-(4-(3-(5-((S)-1-((2S, 4R)-4-hydroxy-2-(((S)-1-(4-(4-methylthiazol-5-yl)phenyl)ethyl)carbamoyl)pyrrolidin-1-yl)-3-methyl-1-oxobutan-2-yl)isoxazol-3-yl)propyl)piperazin-1-yl) nicotinamide] |  | 
< 50 | > 71 |  | Cc1ncsc1-c1ccc([C@H](CO)NC(=O)[C@@H]2C[C@@H](O)CN2C(=O)[C@@H](NC(=O)CN2CCN(CCCc3ccc(C(=O)N[C@H]4C(C)(C)[C@H](Oc5ccc(C#N)c(Cl)c5)C4(C)C)cc3)CC2)C(C)(C)C)cc1 [Example 820, (2S,4R)-1-((S)-2-(2-(4-(3-(4-(((1r,3r)-3-(3-chloro-4-cyanophenoxy)-2,2,4,4-tetramethylcyclobutyl)carbamoyl)phenyl)propyl)piperazin-1-yl)acetamido)-3,3-dimethylbutanoyl)-4-hydroxy-N-((R)-2-hydroxy-1-(4-(4-methylthiazol-5-yl)phenyl)ethyl) pyrrolidine-2-carboxamide] |  | 
< 50 |  | > 71 | Cc1ncsc1-c1ccc([C@H](CO)NC(=O)[C@@H]2C[C@@H](O)CN2C(=O)[C@@H](NC(=O)COCCN2[C@H](C)CN(c3ccc(C(=O)N[C@H]4C(C)(C)[C@H](Oc5ccc(C#N)c(Cl)c5)C4(C)C)cn3)C[C@@H]2C)C(C)(C)C)cc1 [Example 826, N-((1r,3R)-3-(3-chloro-4-cyanophenoxy)-2,2,4,4-tetramethylcyclobutyl)-6-((3S,5R)-4-(2-(2-(((S)-1-((2S,4R)-4-hydroxy-2-(((R)-2-hydroxy-1-(4-(4-methylthiazol-5-yl)phenyl)ethyl)carbamoyl)pyrrolidin-1-yl)-3,3-dimethyl-1-oxobutan-2-yl)amino)-2-oxoethoxy)ethyl)-3,5-dimethylpiperazin-1-yl)nicotinamide] |  | 
< 50 | > 71 |  | Cc1ncsc1-c1ccc([C@H](C)NC(=O)C2C[C@@H](O)CN2C(=O)C(NC(=O)CN2CCC(CCN3CCN(c4ccc(C(=O)NC5C(C)(C)C(Oc6ccc(C#N)c(Cl)c6)C5(C)C)cn4)CC3)CC2)C(C)(C)C)cc1 (stereo partly drawn) [Example 827, N-((1r,3r)-3-(3-chloro-4-cyanophenoxy)-2,2,4,4-tetramethylcyclobutyl)-6-(4-(2-(1-(2-(((S)-1-((2S,4R)-4-hydroxy-2-(((S)-1-(4-(4-methylthiazol-5-yl)phenyl)ethyl)carbamoyl)pyrrolidin-1-yl)-3,3-dimethyl-1-oxobutan-2-yl)amino)-2-oxoethyl)piperidin-4-yl)ethyl)piperazin-1-yl)nicotinamide] |  | 
